Test [1] addresses T1, M1 muscarinic receptor (Homo sapiens, UniProt P11229).
T1 sequence (P11229 1-460): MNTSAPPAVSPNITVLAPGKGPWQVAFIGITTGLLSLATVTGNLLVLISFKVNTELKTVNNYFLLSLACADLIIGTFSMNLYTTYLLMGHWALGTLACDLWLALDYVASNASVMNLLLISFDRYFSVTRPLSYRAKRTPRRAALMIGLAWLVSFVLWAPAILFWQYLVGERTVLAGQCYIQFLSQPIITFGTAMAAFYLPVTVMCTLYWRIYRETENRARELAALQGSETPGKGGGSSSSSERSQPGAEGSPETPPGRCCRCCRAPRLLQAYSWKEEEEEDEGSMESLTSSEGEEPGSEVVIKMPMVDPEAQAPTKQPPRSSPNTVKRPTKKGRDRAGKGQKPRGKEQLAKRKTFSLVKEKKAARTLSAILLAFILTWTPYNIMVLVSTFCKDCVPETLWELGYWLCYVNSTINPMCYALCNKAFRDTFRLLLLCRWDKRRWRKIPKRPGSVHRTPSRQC
Nature of the test: stimulation of cAMP, M1 CHO cells (M1Gs). Type of test: cell-based. Details: host or cells: CHO cells, stably transfected. On the procedure:
Since activation of phospholipase C (PLC) via M2 and M4 receptors is weak, cells were transferred with G15 G-protein to facilitate coupling.
To determine level of cAMP, cells in suspension were pre-incubated for 1 h with 0.4 μM [^3H]adenine, washed, and incubated for 10 min in the presence of isobutylmethylxanthine and 10 μM forskolin. […] Incubation was ended by addition of 0.2 ml of 2.5 M HCl to the samples. Samples were applied to alumina columns (1.5 g of alumina per column), washed with 2 ml ammonium acetate (pH=7.0) and eluted from columns with 4 ml ammonium acetate and measured by liquid scintillation spectrometry. […] The incubation was stopped by addition of 0.5 ml of chloroform methanol HCl mixture (2:1:0.1). After separation of water and organic phases, 0.6 ml of water phase was applied to Dowex columns (1.5 g of Dowex per column), washed by 20 ml of 60 mM ammonium formate/5 mM sodium borate buffer and eluted from columns with 4 ml of 1M ammonium formate/0.1 formic acid buffer and measured by liquid scintillation spectrometry.
Measurements of the production of cAMP and inositol phosphates: Levels of second messengers cAMP and inositol phosphates were determined in radiochemical chromatography assays as described previously. To determine level of cAMP, cells in suspension were pre-incubated for 1 h with 0.4 μM [^3H]adenine, washed, and incubated for 10 min in the presence of isobutylmethylxanthine and 10 μM forskolin. […] Incubation was ended by addition of 0.2 ml of 2.5 M HCl to the samples. Samples were applied to alumina columns (1.5 g of alumina per column), washed with 2 ml ammonium acetate (pH=7.0) and eluted from columns with 4 ml ammonium acetate and measured by liquid scintillation spectrometry. […] For this purpose, new CHO cell lines stably expressing promiscuous G15 G-protein and M2 or M4 receptor were generated by transfection with pCMV/hygro vector and hygromycin selection. To determine the rate of formation of inositol phosphates IPX, suspended cells were pre-incubated with 0.1 μM [^3H]myo-inositol for 60 min, washed, and incubated with 10 mM LiCl for 15 min. […] The incubation was stopped by addition of 0.5 ml of chloroform methanol HCl mixture (2:1:0.1). After separation of water and organic phases, 0.6 ml of water phase was applied to Dowex columns (1.5 g of Dowex per column), washed by 20 ml of 60 mM ammonium formate/5 mM sodium borate buffer and eluted from columns with 4 ml of 1M ammonium formate/0.1 formic acid buffer and measured by liquid scintillation spectrometry.
For bi-phasic response, curves were inhibitory and stimulatory phase were fitted separately. Operational Model of Functional Agonism
[formula] where y is functional response at concentration of tested compound x, EMAX is maximal response of the system, KA is equilibrium dissociation constant and nH is slope factor. Eq. 5 was fitted to data from functional experiments. Eq. 5 was fitted to data by the two-step procedure described earlier. […] In the second step, Eq. 5 with EMAX fixed to the value determined in the first step was fitted to individual experimental data sets. Relative Intrinsic Activity
Muscarinic receptors are also able to stimulate non-preferential signalling pathways.

The subject of test [2] is brain cortex (rich in M1). Nature of the test: accumulation of IPX in dissipated rat brain cortex. In kind it is cell-based. To be noted: in words. On the procedure:
Effects of compounds 6A and 7A were then measured ex vivo in dissipated rat tissues (FIG. 5). Accumulation of IPX was measured in dissipated brain cortex (rich in M1 & M3), submaxillary gland (M1 & M3), and ventral tegmental area (M5). Native tissues express about 10-times less muscarinic receptors than CHO cell lines. Accumulation of cAMP was measured in cerebellum (M2) and striatum (M4).
Rat dissipated tissues: Suspension of dissipated tissues from rat brain cortex, cerebellum, striatum, ventral tegmental area (VTA) and submaxillary glands was prepared as described previously in supplementary methods. Adult 8-weeks old male Wistar rats were scarified by cervical dislocation in accordance with current legislative and guidelines under permission of Czech Ministry of Agriculture 16OZ23113/2017-17214. Tissues were dissected immediately. Submaxillary glands were minced by scissors. Tissues were dispersed by incubation for 15 min at 37° C. in KHB supplemented with trypsin and trituration every 5 min. Large undissipated parts were removed by cell mesh. […]
Measurements of the production of cAMP and inositol phosphates: Levels of second messengers cAMP and inositol phosphates were determined in radiochemical chromatography assays as described previously. […] Samples were applied to alumina columns (1.5 g of alumina per column), washed with 2 ml ammonium acetate (pH=7.0) and eluted from columns with 4 ml ammonium acetate and measured by liquid scintillation spectrometry. […] After separation of water and organic phases, 0.6 ml of water phase was applied to Dowex columns (1.5 g of Dowex per column), washed by 20 ml of 60 mM ammonium formate/5 mM sodium borate buffer and eluted from columns with 4 ml of 1M ammonium formate/0.1 formic acid buffer and measured by liquid scintillation spectrometry.
To exclude the possibility that the observed effects of compounds 6A and 7A are the result of overexpression in the heterologous system, functional response to the compounds was measured ex vivo in dissipated native rat tissues. […] Accumulation of cAMP was measured in M2-rich cerebellum and M4-rich striatum.

Where [3] appears, read: M1Gs (↑cAMP), Table 8, relative to carbachol.

SMILES strings stand for the structures. Read-outs that look alike come from different tables or passages of the source.

Turning to `C1=CCN(Cc2cccs2)CC1.Cl` [Compound 6A, 1-[(thiophen-2-yl)methyl]-1,2,3,6-tetrahydropyridin-1-ium chloride], the RAi in test [1] (setting [3]) was found to be 0. In addition, the “accumulation of IPX” value in test [2] was “negligible increase in IPX”.
The like results for `C[N+]1(Cc2cccs2)CC=CCC1.[I-]` (centres unmarked) [Compound 7A, 1-methyl-1-[(thiophen-2-yl)methyl]-1,2,3,6-tetrahydropyridin-1-ium iodide] were, in that order, 0 and “negligible increase in IPX”.
In the case of `C[N+](C)(C)CCOC(N)=O` [carbachol, reference compound], the “accumulation of IPX” value in test [2] is reported as “profound accumulation of IPX”.
As a reminder, the EC50 is the concentration that produces a half-maximal response. The low end stands for greater potency, the high end for weaker potency. The term Kd denotes the constant that tells how readily two partners part at equilibrium. Regarding `O=C1CCCN1CC#CCN1CCCC1` [oxotremorine, reference compound], in test [1], a half-maximal response (EC50) required 11.2 µM, the “E′MAX” value came out at 1.77 ± 0.08 fold increase, the Kd is 15.8 µM and the RAi is given as 3.91 ± 0.22. In addition, in test [1], the “Δlog(τ/KA)” value was −0.59 ± 0.06 and the τ is listed as 0.38 ± 0.04.

The record behind these values is US11591323B2, “Muscarinic agonists as non-steroidal and non-opioid analgesics and methods of use thereof” (Barry University, priority 2019, dated 2023).
